Laboratory results reported in article PMC6135860 (Neuropsychopharmacology, 2018).
Like-named read-outs stand apart in the source and are kept apart here.

How the values were obtained:
[1] = Pharmacokinetics and plasma exposure in mice
[2] = target: T1, humanized mouse PDE4D7 dimer S129D(PKA), Y271F(UCR2) (Mus musculus, UniProt Q01063, S129D/Y271F); assay: biochemical; format: biochemical
T1 construct: hexahistidine; Proteos Inc; host or cells: Baculovirus-infected Sf9 insect cells
T1 sequence (Q01063 1-747 S129D/Y271F): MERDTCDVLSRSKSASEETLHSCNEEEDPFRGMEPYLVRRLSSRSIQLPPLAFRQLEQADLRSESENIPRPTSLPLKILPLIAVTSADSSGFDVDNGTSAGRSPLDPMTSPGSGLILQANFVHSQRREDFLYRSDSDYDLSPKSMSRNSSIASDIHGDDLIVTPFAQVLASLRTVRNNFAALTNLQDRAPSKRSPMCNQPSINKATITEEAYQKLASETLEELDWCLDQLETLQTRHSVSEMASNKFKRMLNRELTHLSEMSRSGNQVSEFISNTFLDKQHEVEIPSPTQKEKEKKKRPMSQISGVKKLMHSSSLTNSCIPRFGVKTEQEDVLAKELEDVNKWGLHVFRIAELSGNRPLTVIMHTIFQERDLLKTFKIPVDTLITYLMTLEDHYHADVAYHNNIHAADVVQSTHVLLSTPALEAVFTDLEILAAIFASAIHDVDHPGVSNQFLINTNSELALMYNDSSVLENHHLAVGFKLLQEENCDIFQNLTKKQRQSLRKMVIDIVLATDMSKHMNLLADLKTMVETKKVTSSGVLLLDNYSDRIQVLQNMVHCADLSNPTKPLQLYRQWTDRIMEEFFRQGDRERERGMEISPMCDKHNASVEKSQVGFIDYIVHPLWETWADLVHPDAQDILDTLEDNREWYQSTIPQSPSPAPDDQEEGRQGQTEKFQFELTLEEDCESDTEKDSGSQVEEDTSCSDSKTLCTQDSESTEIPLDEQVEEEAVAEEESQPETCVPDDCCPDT
Protocol: Kinetic assay of cAMP hydrolysis by purified PDE4 enzymes is measured by coupling the formation of the PDE4 reaction product 5′-adenosine monophosphate (AMP) to the oxidation of reduced nicotinamide adenine dinucleotide (NADH). This is accomplished with three coupling enzymes (yeast myokinase, pyruvate kinase, and lactate dehydrogenase), and allows fluorescent determination of reaction rates [19]. To measure inhibition of PDE4 enzymes by test compounds, data were percent normalized relative to controls and are presented as percent inhibition.
Kinetic assay of cAMP hydrolysis by purified PDE4 enzymes is measured by coupling the formation of the PDE4 reaction product 5′-adenosine monophosphate (AMP) to the oxidation of reduced nicotinamide adenine dinucleotide (NADH). This is accomplished with three coupling enzymes (yeast myokinase, pyruvate kinase, and lactate dehydrogenase), and allows fluorescent determination of reaction rates.^19 Assays were performed in 96-well plates in a total volume of 200 μl/well. Compounds were dissolved in dimethylsulfoxide (DMSO) and added to plates in a volume of 10 μl followed by addition of 165 μl of assay mix. Plates were pre-incubated at 25 °C for 10 min. The enzyme reaction was initiated by the addition of 25 μl of cAMP followed by thorough mixing. […] Initial rates (slopes) were determined from linear portions of the progress curves. […]

[3] = system: ICR mice; assay: Anxiolytic-like effect models (marble burying, elevated-plus maze); format: in vivo, mouse; settings: Supplementary Figure S4
From the text: Data are presented as mean ± S.E.M. (n = 10 male mice); * p < 0.05 and *** p < 0.001 (Student’s t-test) versus vehicle-treated group.

[4] = system: wild-type mice; assay: Y-maze spontaneous alternation test; format: in vivo, mouse; settings: oral gavage 1 h prior to test
Protocol: The test consists of a single 5 min trial, in which the mouse was allowed to explore all three arms of the Y-maze [31]. Spontaneous alternation (%) was defined as consecutive entries in three different arms, divided by the number of possible alternations (total arm entries minus 2).
Y-maze spontaneous alternation test. The Y-maze apparatus made of matt blue Plexiglas had three identical arms (L 40 cm, W 5 cm, H 15 cm) placed at 120° from each other. The test consisted of a single 5 min trial, in which the mouse was allowed to explore all three arms of the Y-maze. The start arm was varied between animals to avoid placement bias. Spontaneous Alternation (%) was defined as consecutive entries in 3 different arms, divided by the number of possible alternations (total arm entries minus 2). Mice with less than 8 arm entries during the 5-min trial were excluded from the analysis.

[5] = system: humanized PDE4D mice; assay: Scopolamine-induced memory impairment in novel object recognition, 1 h inter-trial interval; format: in vivo, mouse
Protocol: The novel object recognition test was performed as described elsewhere. […] The duration each animal spent exploring the objects was recorded. Time spent exploring the identical objects in T1 was recorded as a1 and a2; time spent exploring the familiar and the novel objects in T2 was recorded as “a” and “b”, respectively. The following variables were calculated: e1 = a1 + a2, e2 = a + b, the relative discrimination index d2 = (b–a)/e2.
For the scopolamine-induced memory impairment models, a single dose of scopolamine (0.1 mg/kg, IP) was administered 30 min before the training session of the NOR. Animals treated with H-89 or vehicle were implanted with 26-gauge guide cannula unilaterally (AP −0.2 mm from Bregma, ML +1 mm from the midline, DV−2mm from skull surface) and rested for a week before any tests.
Novel object recognition. Mice were handled for 3-5 min for 5 days in a row. The novel object recognition test was performed in a Plexiglas open field box (L30 cm, W50 cm, H40 cm) as described elsewhere^64,65. Briefly, the task procedure consists of three phases: habituation, training (T1), and testing (T2). In the habituation phase (day 1), each animal is allowed to freely explore the apparatus for 10 min; then the animal is returned to its home cage. During the training phase (day 2), a single animal is placed in the center of the open field containing two identical objects located on the diagonal of the field, and allowed to explore for 5 min. After a retention interval after T1 of 24 h (long-term recall) or 1 h (scopolamine-impairment model), the animal was subjected to the T2 testing phase for 5 min, during which one familiar object and one novel object were presented. […] The duration each animal spent exploring the objects was recorded. Time spent exploring the identical objects in T1 was recorded as a1 and a2; time spent exploring the familiar and the novel objects in T2 was recorded as ‘a’ and ‘b’, respectively. The following variables were calculated: e1 = a1 + a2, e2 = a + b, the relative discrimination index d2 = (b – a)/e2.

[6] = system: ICR mice; assay: Antidepressant-like effect models (tail suspension, forced swim); format: in vivo, mouse; settings: Supplementary Figure S3
From the text: Data are presented as mean ± S.E.M. (n = 10 male mice); * p < 0.05 and ** p < 0.01 (Student’s t-test) versus vehicle-treated group.

[7] = system: humanized PDE4D mice
[8] = target: PDE4 binding sites in humanized PDE4D mouse brain membranes; assay: [3H]-rolipram radioligand binding to brain membranes
Protocol: Mice were killed by decapitation, and the brains were immediately dissected on ice and homogenized in binding buffer using a Polytron homogenizer (Brinkman Instruments, Westbury, NY). The membrane fraction of the homogenate was obtained by centrifugation at 15,000 × g for 15 min, and resuspension of the pellet in the binding buffer.
Mice were killed by decapitation, and the brains were immediately dissected on ice and homogenized in binding buffer (50 mM Tris-HCl, 5 mM MgCl2, pH 7.5) using a Polytron homogenizer (Brinkman Instruments, Westbury, NY). The membrane fraction of the homogenate was obtained by centrifugation at 15,000 g for 15 min, and resuspension of the pellet in the binding buffer^29.
At the end of the incubation, reactions were stopped by adding 5 ml of the ice-cold binding buffer and rapid vacuum filtration through glass fiber filters that had been soaked in 0.3% polyethyleneimine. The filters were then washed twice with 5 ml of the ice-cold binding buffer, and discs of filter paper were collected for measurement of radioactivity by liquid scintillation counting.

[9] = system: brain cAMP, humanized PDE4D mice; assay: Brain cAMP ELISA after oral dosing; format: in vivo, mouse
Protocol: (§1) On the day of assay, frozen brain samples were analyzed using the cAMP complete ELISA kit (Enzo Life Sciences, Farmingdale, NY) according to the assay protocol.
(§2) Concentrations of cAMP in mouse brain samples were measured using an enzyme-linked immunosorbent assay (ELISA). The mice were treated with various doses of BPN-14770 or vehicle. 1 h after dosing, mice were killed by rapid decapitation, and brains were immediately were dissected on ice, flash frozen in liquid nitrogen, and stored at -80 ̊C. On the day of assay, brain samples (one hemisphere) were ground to a fine powder under liquid nitrogen in a stainless steel mortar, followed by addition of 10 volumes of 0.1 M HCl. Tissue homogenates were then centrifuged at 800ˣg for 15 min. Supernatants were collected for immediate assay or stored frozen for assay later using the cAMP complete ELISA kit (Enzo Life Sciences, Farmingdale, NY) according to the assay protocol ^66.

[10] = system: brain cAMP, wild-type mice; assay: Brain cAMP ELISA after oral dosing; format: in vivo, mouse
Protocol: as §1, §2

For `O=C(O)Cc1ccc(Cc2cc(-c3cccc(Cl)c3)nc(C(F)(F)F)c2)cc1` [BPN14770], which “plasma exposure at the NOAEL” value ([1]; 1 mg/kg PO, 1 h post dose, data not shown) is on record?
The value was 1305 ± 113 ng/mL.

And the Kp ([1]; C57bl/6, mouse, brain and plasma)?
Its Kp is 0.4 to 0.42.

And the bioavailability ([1]; C57bl/6, mouse, in vivo, po)?
Its bioavailability is 70 to 80%.

What about the half-life ([1]; C57bl/6, mouse, plasma and brain) of the same compound?
Its half-life is 8 to 10 h.

And the “increase in potency by mutation of mouse UCR2 tyrosine 271 to phenylalanine” value ([2]; Y271F versus wild-type mouse PDE4D7)?
The value was 46 fold.

And the IC50 ([2]; mouse PDE4D7 dimer, S129D, Y271F (humanized UCR2))?
Its IC50 is 2.9 ± 0.3 nM.

And the anxiolytic-like effect [3]?
Its anxiolytic-like effect is “ineffective”.

What about the “MED for improved % alternation in Y-maze” value [4] of the same compound?
The value was 1 mg/kg.

And the “MED for reversal of scopolamine memory deficit” value ([5]; acute administration 30 min prior to scopolamine, NOR 1 h inter-trial interval)?
The value was 0.03 mg/kg.

And the “memory benefit in the scopolamine impairment model with repeated dosing” value ([5]; repeated treatment for 14 days)?
The value was “maintained with repeated dosing”.

What about the antidepressant-like effect [6] of the same compound?
The antidepressant-like effect was “ineffective”.

What about the “projected tolerability in non-rodent species, plasma” value ([7]; from surrogate measure of emesis) of the same compound?
Its value is “greater than 1300 ng/ml”.

What about the “window in exposure between beneficial doses and plasma exposure predicted to cause emesis” value ([7]; humanized PDE4D mice) of the same compound?
The value was 40- to 100 fold.

And the “NOAEL (no observed adverse effect level), ketamine/xylazine test” value ([7]; mouse, in vivo)?
The value was 1 mg/kg PO.

And the Ki ([8]; hPDE4D, inhibition of [3H]-rolipram binding, read-out: Two-site Ki1)?
The Ki was 2.8 ± 1.08 nM.

And the Ki ([8]; hPDE4D, inhibition of [3H]-rolipram binding, read-out: Two-site Ki2)?
Its Ki is 186 ± 19 nM.

And the Ki ([8]; read-out: One-site Ki)?
The Ki was 82.1 ± 6.03 nM.

What about the “increase in brain cAMP” value ([9]; humanized PDE4D mice, 0.3 mg/kg PO) of the same compound?
Its value is “almost three-fold”.

What about the “minimum effective dose (MED) for increase in brain cAMP” value ([9]; humanized mice, 1 h after oral dose) of the same compound?
The value was 0.1 mg/kg PO.

And the “effect on brain cAMP” value ([10]; 0.3 mg/kg PO)?
The value was “ineffective”.

And the “minimum effective dose (MED) for increase in brain cAMP” value ([10]; 1 h after oral dose)?
The value was 1 mg/kg PO.
